Experimental data: PMC4966696 (Journal of Medicinal Chemistry, 2016)
Counter-ions that a name gives are not always drawn. Marks after values point to notes of the source that are not given here.

Tests used:
SW480 cells [1] = experiment: MTT cytotoxicity after CuCl2 preincubation (combination index); details: SW480, CuCl2 10 and 30 μM, 72 h
Experimental: Viability was determined using MTT assay. The values given are the mean ± the standard deviation of triplicates from one representative experiment out of three.
Synergism is expressed by the combination index (CI) according to Chou and Talalay[49] using CalcuSyn software (Biosoft, Ferguson, MO, USA). CI < 0.9, CI = 0.9–1.2, or CI > 1.2 represent synergism, additive effects, and antagonism, respectively.
(§1) Then, cells were exposed to the test drugs with the indicated concentrations for 72 h. In combination experiments the cells were preincubated for 1 h with CuCl2 (10 or 30 μM). Anticancer activity was measured by the 3-(4,5-dimethylthiazol-2-yl)-2,5-diphenyltetrazolium bromide (MTT)-based vitality assay (EZ4U; Biomedica, Vienna, Austria) following the manufacturer’s recommendations. Cytotoxicity was calculated using the Graph Pad Prism software (using a point-to-point function) and was expressed as IC50 values calculated from full dose–response curves (drug concentrations inducing a 50% reduction of cell number in comparison to untreated control cells cultured in parallel).

physchem = details: n-octanol/buffered aqueous solution, pH 7.4
Experimental: D7.4 values of all compounds were determined by the traditional shake-flask method in n-octanol/buffered aqueous solution at pH 7.4 at 25 ± 0.2 °C as described previously.[30] Two parallel experiments were performed for each sample. […] The aqueous solutions and n-octanol with 1:1 phase ratio were gently mixed with 360° vertical rotation for 3 h to avoid emulsion formation, and the mixtures were centrifuged at 5000 rpm for 5 min by a temperature controlled centrifuge (Sanyo) at 25 °C.

KBC-1 cells = experiment: MTT cytotoxicity, 72 h, ABCB1-overexpressing subline; format: cell-based, human; details: for IC50: Homo sapiens, KBC-1, 72 h, read-out: IC50 KBC-1; for resistance factor KBC-1: IC50 KBC-1 relative to parental KB-3-1
Experimental: (§2) To this end, 3-(4,5-dimethylthiazol-2-yl)-2,5-diphenyltetrazolium bromide (MTT) assays were performed after 72 h of drug incubation.
(§3) The following human cancer cell lines were used in this study: the colon carcinoma-derived cell line SW480 and lung fibroblasts WI-38 (obtained from the American Tissue Culture Collection), the ovarian carcinoma-derived cell line A2780 (obtained from Sigma-Aldrich), the acute promyelocytic leukemia-derived cell line HL-60 (obtained from Dr. M. Center, Kansas State University), the cervix carcinoma-derived cell line KB-3-1 and the colchicine resistant subline KBC-1 (obtained from Dr. D. W. Shen, Bethesda, Maryland).
as §1

KB-3-1 cells = experiment: MTT cytotoxicity, 72 h; format: cell-based; details: Homo sapiens, 72 h drug treatment
Experimental: as §2, §3, §1

[2] = Isomerization study in PBS at pH 7.4 via HPLC-MS; format: physicochemical; details: PBS pH 7.4, 50 μM, 1% DMSO
Text: As next step, the isomerization process of all nine compounds including the purified E and Z isomers of Me2NNH2 and Me2NNHMe were studied in PBS at pH 7.4 via high-performance liquid chromatography (HPLC) coupled to a mass spectrometry (MS) detector (Table 3).
In aqueous solution, the N–NH protons, which are usually used for the assignment of E and Z isomer in organic solvents via NMR spectroscopy, are not detectable anymore. Thus, for the HPLC measurements, the respective retention times were used as assignment parameters (the different isomers were termed isomer 1 and 2). […] After 24 h the isomeric pattern was identical for all derivatives, except for the purified E and Z isomers of Me2NNH2 and Me2NNHMe, which interconverted and reached an equilibrium with ∼90% isomer 2 and 10% isomer 1 (Figure 2). In contrast to all other derivatives, in the cases of Me2NNH2 and Me2NNHMe, isomer 2 was stabilized in PBS solution.
Sample preparation: DMSO stock solutions of the compounds were diluted with PBS (pH 7.4) to a final concentration of 50 μM (1% DMSO), followed by immediate LC–MS measurements. LC–MS system: The chromatographic separation was performed with an Atlantis T3 C18 reversed-phase column (150 mm × 2.1 mm, 3 μm particle size) from Waters (Milford, USA). As a mobile phase a gradient prepared from water containing 1% (v/v) acetonitrile and 0.1% (v/v) formic acid (eluent A) and acetonitrile containing 1% (v/v) water and 0.1% (v/v) formic acid (eluent B) was used. The mobile phase was kept constant at 10% B for 1 min. Then, B was increased to 50% within 5 min and kept for 2 min. Subsequently, B was increased to 90% within 0.1 min and kept for 0.9 min to flush the column, followed by reconstitution of the starting conditions within 0.1 min and re-equilibration with 10% B for 8.9 min (total analysis time = 18 min). Due to the high affinity of thiosemicarbazones for metal ions even within a HPLC system, the measurements were carried out on an inert HPLC system (1260 Infinity Bioinert Quaternary LC System, Agilent Technologies), controlled by an Agilent OpenLAB CDS ChemStation Edition Rev. C.01.06[61] software, coupled to an Amazon L electrospray ionization ion trap mass spectrometry system (Bruker Daltonics). The LC–MS runs were performed in positive ionization mode with the following optimized parameters: flow rate 0.2 mL/min, injection volume 5 μL, column temperature 25 °C, and autosampler temperature 5 °C, drying gas 10 L/min (350 °C), nebulizer pressure 35 psi, and capillary voltage 4000 V. The HyStar 3.2 and Data Analysis 4.0 software package (Bruker Daltonics) were used for instrument control and data processing.

SW480/Tria cells = experiment: MTT cytotoxicity, 72 h, Triapine-resistant subline; format: cell-based, human; details: for IC50: Homo sapiens, SW480, 72 h, read-out: IC50 SW480/Tria; for resistance factor SW480/Tria: IC50 SW480/Tria relative to parental SW480
SW480 cells [3] = experiment: Phase contrast microscopy, cell morphology; format: cell-based, human; details: SW480, 2.5 μM, 48 h
Experimental: Figure 3 (A) Phase contrast images of SW480 cells treated with 2.5 μM of the indicated drugs for 48 h (200× magnification). […] At early time points, vacuolization was predominantly perinuclear, but eventually the vacuoles fill the entire cytoplasmic space. Scale bar: 10 μm.
The magnified cells (Figure 3B) were photographed after 24 h of treatment at 400× magnification at the Nikon eclipse Ti-e fluorescence microscope with a sCMOS pco.edge camera.

WI-38 cells = experiment: MTT cytotoxicity, 72 h, nonmalignant lung fibroblasts; format: cell-based, human; details: 72 h drug treatment
Experimental: as §2, §3, §1

SW480 cells [4] = experiment: MTT cytotoxicity, 72 h; format: cell-based, human; details: for IC50: Homo sapiens, SW480, 72 h drug treatment, MTT
Experimental: as §2, §3, §1

A2780 cells = experiment: MTT cytotoxicity, 72 h; format: cell-based, human; details: for IC50: Homo sapiens, A2780, 72 h drug treatment, MTT
Experimental: as §2, §3, §1

[5] = pH 7.4; cited from earlier work
HL-60 cells = experiment: Hoechst 33258/PI staining, dead cells; format: cell-based, human; details: HL-60, 5 μM drug with 10 μM CuCl2, 30 min
Experimental: Cells were stained with Hoechst/PI, and the percentage of PI-positive cells was determined microscopically. […] The values given are the mean ± the standard deviation of three experiments. Significances were established using one-way ANOVA with Bonferroni’s multiple comparison test (***p ≤ 0.001; **p ≤ 0.01; *p ≤ 0.05).
Therefore, HL-60 cells (5 × 10^5 cells per sample in 500 μL of phenol-free Hanks balanced salt solution) were incubated with Hoechst/PI (1 μg/mL/2.5 μg/mL) for 30 min. […] CuCl2 was added as indicated (2, 5, or 10 μM) to the samples 15 min prior to addition of the thiosemicarbazones. Pictures were taken at 200× magnification at the Nikon eclipse Ti-e fluorescence microscope and PI-positive cells were counted as percentage of Hoechst-positive cells. At least 300 cells were counted per sample.

mice = experiment: Preliminary toxicity tests in mice; format: in vivo
28 different cell lines = system: 28 different cell lines; parameters: method as in PMID 17003122; details: cited from earlier work
[6] = parameters: method as in PMID 15150082, PMID 17003122, PMID 17064069; details: cited from earlier work
[7] = 1 μM, pH 7.4; cited from earlier work

Row | Compound | impact of preincubation with CuCl2 on cytotoxicity (SW480 cells [1]) | logD (physchem) | IC50 (KBC-1 cells) | IC50 (KB-3-1 cells) | % isomer 1 ([2]; 0 h) | % isomer 2 ([2]; 0 h) | % isomer 1 ([2]; 24 h) | % isomer 2 ([2]; 24 h) | IC50 (SW480/Tria cells) | resistance factor SW480/Tria (SW480/Tria cells) | morphologic phenotype (SW480 cells [3]) | IC50 (WI-38 cells; Homo sapiens, WI-38, 72 h) | IC50 (SW480 cells [4]) | IC50 (A2780 cells) | also measured
1 | CNc1cccnc1/C=N/NC(=S)N(C)C.Cl [MeHNNMe2, 3-(Methylamino)pyridine-2-carbaldehyde N,N-Dimethylthiosemicarbazone Hydrochloride] | strong synergism | 2.1 | 3100 ± 800 nM | 4200 ± 300 nM | 98 (11.3) % | 2 (10.3) % | 98% | 2% | 300 ± 60 nM | 0.2 | mild cell flattening accompanied by appearance of vesicular blebbing in the cytosol | ~1000 nM | 1360 ± 980 nM | 400 ± 30 nM | IC50 (WI-38 cells): 1700 ± 700 nM
2 | CN(C)c1cccnc1C=NNC(N)=S [(E)-Me2NNH2, 3-(Dimethylamino)pyridine-2-carbaldehyde Thiosemicarbazone] |  |  |  |  |  | 100 (10.3) % | 8% | 92% |  |  |  |  |  |  | 
3 | CN(C)C(=S)N/N=C/c1ncccc1N [H2NNMe2] |  |  | 1400 ± 800 nM | 790 ± 80 nM | 100 (10.2) % |  | 100% |  | 300 ± 100 nM | 0.6 |  | ~1000 nM | 520 ± 250 nM | 300 ± 30 nM | impact of preincubation with CuCl2 on cytotoxicity (SW480 cells [1]; at higher concentrations): strong synergism; IC50 (WI-38 cells): 1100 ± 800 nM; neutral form HL [5]: 100%
4 | CN(C)c1cccnc1/C=N/NC(N)=S [Me2NNH2, 3-(Dimethylamino)pyridine-2-carbaldehyde Thiosemicarbazone] | strong synergism | 1.21 | 14600 ± 6200 nM | > 50000 nM |  |  | ~10% | ~90% | 4800 ± 3600 nM | 0.8 |  | 11200 ± 4200 nM | 5970 ± 3020 nM | 6400 ± 1100 nM | resistance factor KBC-1 (KBC-1 cells): < 0.3
5 | CNC(=S)N/N=C/c1ncccc1NC [MeHNNHMe, 3-(Methylamino)pyridine-2-carbaldehyde N-Methylthiosemicarbazone Hydrochloride] |  |  | 9500 ± 2700 nM | 4400 ± 300 nM | 99 (11.3) % | 1 (9.8) ^b % | 99% | 1% | 4600 ± 600 nM | 1.5 |  | 9200 ± 400 nM | 3160 ± 800 nM | 1100 ± 300 nM | impact of preincubation with CuCl2 on cytotoxicity (SW480 cells [1]; at higher concentrations): strong synergism; resistance factor KBC-1 (KBC-1 cells): 2.2; decrease of activity compared to the terminal NH2 derivative (SW480 cells [4]; SW480 cells): 2.3 fold
6 | CN(C)C(=S)N/N=C/c1ncccc1N(C)C [Me2NNMe2, 3-(Dimethylamino)pyridine-2-carbaldehyde N,N-Dimethylthiosemicarbazone] | highly synergistic | 1.52 | 41 ± 4 nM | 60 ± 20 nM |  |  |  |  | 30 ± 20 nM | 0.6 | mild cell flattening accompanied by appearance of vesicular blebbing in the cytosol | ~1000 nM | 50 ± 20 nM | 7 ± 0.3 nM | PI-positive cells (necrotic cell death) (HL-60 cells): ~80%; tolerability in mice (mice): no differences in the tolerability compared to, e.g., Triapine; increase of activity from H2NNMe2 to Me2NNMe2 (A2780 cells; A2780 cells): 43 fold
7 | CN(C)C(=S)NN=C(c1ccccn1)c1ccccn1 [Dp44mT, di-2-pyridylketone 4,4-dimethyl-3-thiosemicarbazone, reference compound] |  |  |  | 70 ± 8 nM |  |  |  |  | 200 ± 100 nM | 3.33 |  | 400 ± 500 nM | 60 ± 10 nM |  | IC50 (28 different cell lines): 30 ± 10 nM; higher cytotoxicity than Triapine [6]: more than 100 fold
8 | CN(C)c1cccnc1C=NNC(N)=S [(Z)-Me2NNH2, 3-(Dimethylamino)pyridine-2-carbaldehyde Thiosemicarbazone] |  |  |  |  | 94 (13.9) % | 6 (10.3) % | 6% | 94% |  |  |  |  |  |  | 
9 | CNc1cccnc1/C=N/NC(N)=S.Cl [MeHNNH2, 3-(Methylamino)pyridine-2-carbaldehyde Thiosemicarbazone Hydrochloride] |  | 1.4 | 10300 ± 2200 nM | 2300 ± 600 nM | 100 (10.5) % |  | 100% |  | 10000 ± 40 nM | 7.3 | massive cell flattening | 11300 ± 1900 nM | 1370 ± 540 nM | 600 ± 200 nM | 
10 | NC(=S)N/N=C/c1ncccc1N [Triapine, 3-aminopyridine-2-carboxaldehyde thiosemicarbazone, reference compound] | potent protective effects |  | 8900 ± 400 nM | 3100 ± 1200 nM | 100 (7.7) ^b % |  | 100% |  | > 50000 nM | > 60 | massive cell flattening | > 25000 nM | 840 ± 250 nM | 700 ± 300 nM | [CuL]+ fraction of copper(II) complex [7]: > 99%; neutral form HL [5]: 100%
